Measured values published in article PMC6311682, “Design, Synthesis, and Biological Evaluation of 2-Nitroimidazopyrazin-one/-es with Antitubercular and Antiparasitic Activity” (Journal of Medicinal Chemistry, 2018).
Values after ≈ are worked out from the molar mass of the structure shown.

test system: L. donovani MHOM/IN/80/DD8 (ATCC50212); assay: L. donovani DD8 intracellular (THP-1) amastigote assay; format: cell-based; conditions: Leishmania donovani, read-out: antiparasitic IC50 L. donovani

Row | SMILES | IC50 [µM]
1 | Cc1[nH]c(=O)c2nc([N+](=O)[O-])cn2c1C [26a, 5,6-Dimethyl-2-nitroimidazo[1,2-a]pyrazin-8(7H)-one] | > 80
2 | Cc1nc(OCc2ccc(OC(F)(F)F)cc2)c2nc([N+](=O)[O-])cn2c1C [26c, 5,6-Dimethyl-2-nitro-8-((4-(trifluoromethoxy)benzyl)oxy)imidazo[1,2-a]pyrazine] | > 80
3 | Cc1ccc(Cn2c(C)c(C)n3cc([N+](=O)[O-])nc3c2=O)cc1 [26d, 5,6-Dimethyl-7-(4-methylbenzyl)-2-nitroimidazo[1,2-a]pyrazin-8(7H)-one] | > 40

same assay, conditions: Leishmania donovani, read-out: antiparasitic pIC50 ± SE L. donovani (converted)

Row | SMILES | IC50 [µM]
4 | Cc1[nH]c(=O)c2nc([N+](=O)[O-])cn2c1C [26a, 5,6-Dimethyl-2-nitroimidazo[1,2-a]pyrazin-8(7H)-one] | > 79.4
5 | Cc1nc(OCc2ccc(OC(F)(F)F)cc2)c2nc([N+](=O)[O-])cn2c1C [26c, 5,6-Dimethyl-2-nitro-8-((4-(trifluoromethoxy)benzyl)oxy)imidazo[1,2-a]pyrazine] | > 79.4
6 | Cc1ccc(Cn2c(C)c(C)n3cc([N+](=O)[O-])nc3c2=O)cc1 [26d, 5,6-Dimethyl-7-(4-methylbenzyl)-2-nitroimidazo[1,2-a]pyrazin-8(7H)-one] | > 39.8

test system: C. difficile (630, ATCC BAA-1382); assay: Broth microdilution MIC assay, C. difficile; format: cell-based, Clostridium difficile; conditions: 630 ATCC BAA-1382, median MIC

Row | SMILES | antibacterial MIC C. difficile [µg/mL]
7 | Cc1[nH]c(=O)c2nc([N+](=O)[O-])cn2c1C [26a, 5,6-Dimethyl-2-nitroimidazo[1,2-a]pyrazin-8(7H)-one] | >64
8 | Cc1nc(OCc2ccc(OC(F)(F)F)cc2)c2nc([N+](=O)[O-])cn2c1C [26c, 5,6-Dimethyl-2-nitro-8-((4-(trifluoromethoxy)benzyl)oxy)imidazo[1,2-a]pyrazine] | >64

same assay, conditions: Clostridioides difficile, ATCCBAA1382; 630 ATCC BAA-1382, median MIC; read-out: antibacterial MIC C. difficile

Row | SMILES | MIC [µg/mL]
9 | Cc1[nH]c(=O)c2nc([N+](=O)[O-])cn2c1C [26a, 5,6-Dimethyl-2-nitroimidazo[1,2-a]pyrazin-8(7H)-one] | > 64
10 | Cc1nc(OCc2ccc(OC(F)(F)F)cc2)c2nc([N+](=O)[O-])cn2c1C [26c, 5,6-Dimethyl-2-nitro-8-((4-(trifluoromethoxy)benzyl)oxy)imidazo[1,2-a]pyrazine] | > 64

test system: not listed separately; assay: Broth microdilution MIC assay, ESKAPE pathogens; format: cell-based; conditions: S. aureus, E. coli, K. pneumoniae, A. baumannii, P. aeruginosa; read-out: antibacterial MIC ESKAPE

Row | SMILES | MIC [µg/mL]
11 | Cc1[nH]c(=O)c2nc([N+](=O)[O-])cn2c1C [26a, 5,6-Dimethyl-2-nitroimidazo[1,2-a]pyrazin-8(7H)-one] | > 32
12 | Cc1nc(OCc2ccc(OC(F)(F)F)cc2)c2nc([N+](=O)[O-])cn2c1C [26c, 5,6-Dimethyl-2-nitro-8-((4-(trifluoromethoxy)benzyl)oxy)imidazo[1,2-a]pyrazine] | > 32
13 | Cc1ccc(Cn2c(C)c(C)n3cc([N+](=O)[O-])nc3c2=O)cc1 [26d, 5,6-Dimethyl-7-(4-methylbenzyl)-2-nitroimidazo[1,2-a]pyrazin-8(7H)-one] | > 32

test system: ESKAPE pathogens S. aureus (ATCC 43300), E. coli (ATCC 25922), K. pneumoniae (ATCC 700603), A. baumannii (ATCC 19606), P. aeruginosa (ATCC 27853); assay: Broth microdilution MIC assay, ESKAPE pathogens; format: cell-based; conditions: not given

Row | SMILES | antibacterial MIC ESKAPE [µg/mL]
14 | Cc1[nH]c(=O)c2nc([N+](=O)[O-])cn2c1C [26a, 5,6-Dimethyl-2-nitroimidazo[1,2-a]pyrazin-8(7H)-one] | >32
15 | Cc1nc(OCc2ccc(OC(F)(F)F)cc2)c2nc([N+](=O)[O-])cn2c1C [26c, 5,6-Dimethyl-2-nitro-8-((4-(trifluoromethoxy)benzyl)oxy)imidazo[1,2-a]pyrazine] | >32
16 | Cc1ccc(Cn2c(C)c(C)n3cc([N+](=O)[O-])nc3c2=O)cc1 [26d, 5,6-Dimethyl-7-(4-methylbenzyl)-2-nitroimidazo[1,2-a]pyrazin-8(7H)-one] | >32

test system: C. albicans (ATCC 90028) and C. neoformans (H99, ATCC 208821); assay: Broth microdilution MIC assay, fungi; format: cell-based; conditions: not given

Row | SMILES | antifungal MIC [µg/mL]
17 | Cc1[nH]c(=O)c2nc([N+](=O)[O-])cn2c1C [26a, 5,6-Dimethyl-2-nitroimidazo[1,2-a]pyrazin-8(7H)-one] | >32
18 | Cc1nc(OCc2ccc(OC(F)(F)F)cc2)c2nc([N+](=O)[O-])cn2c1C [26c, 5,6-Dimethyl-2-nitro-8-((4-(trifluoromethoxy)benzyl)oxy)imidazo[1,2-a]pyrazine] | >32
19 | Cc1ccc(Cn2c(C)c(C)n3cc([N+](=O)[O-])nc3c2=O)cc1 [26d, 5,6-Dimethyl-7-(4-methylbenzyl)-2-nitroimidazo[1,2-a]pyrazin-8(7H)-one] | >32

same assay, conditions: Candida albicans, read-out: antifungal MIC

Row | SMILES | MIC [µg/mL]
20 | Cc1[nH]c(=O)c2nc([N+](=O)[O-])cn2c1C [26a, 5,6-Dimethyl-2-nitroimidazo[1,2-a]pyrazin-8(7H)-one] | > 32
21 | Cc1nc(OCc2ccc(OC(F)(F)F)cc2)c2nc([N+](=O)[O-])cn2c1C [26c, 5,6-Dimethyl-2-nitro-8-((4-(trifluoromethoxy)benzyl)oxy)imidazo[1,2-a]pyrazine] | > 32
22 | Cc1ccc(Cn2c(C)c(C)n3cc([N+](=O)[O-])nc3c2=O)cc1 [26d, 5,6-Dimethyl-7-(4-methylbenzyl)-2-nitroimidazo[1,2-a]pyrazin-8(7H)-one] | > 32

test system: not listed separately; assay: Kinetic solubility determination by LC-UV; conditions: PBS, pH 7.4, Solubility µM (PBS), PBS pH 7.4, 24 h, room temperature, 1% DMSO

Row | SMILES | solubility at 24 h [µM]
23 | Cc1[nH]c(=O)c2nc([N+](=O)[O-])cn2c1C [26a, 5,6-Dimethyl-2-nitroimidazo[1,2-a]pyrazin-8(7H)-one] | > 200
24 | Cc1nc(OCc2ccc(OC(F)(F)F)cc2)c2nc([N+](=O)[O-])cn2c1C [26c, 5,6-Dimethyl-2-nitro-8-((4-(trifluoromethoxy)benzyl)oxy)imidazo[1,2-a]pyrazine] | < 5
25 | Cc1ccc(Cn2c(C)c(C)n3cc([N+](=O)[O-])nc3c2=O)cc1 [26d, 5,6-Dimethyl-7-(4-methylbenzyl)-2-nitroimidazo[1,2-a]pyrazin-8(7H)-one] | 6.13 ± 0.0957 (≈ 1.91 µg/mL)

same assay, conditions: water, Solubility µM (H2O), 24 h, room temperature, 1% DMSO

Row | SMILES | solubility at 24 h [µM]
26 | Cc1[nH]c(=O)c2nc([N+](=O)[O-])cn2c1C [26a, 5,6-Dimethyl-2-nitroimidazo[1,2-a]pyrazin-8(7H)-one] | > 200
27 | Cc1nc(OCc2ccc(OC(F)(F)F)cc2)c2nc([N+](=O)[O-])cn2c1C [26c, 5,6-Dimethyl-2-nitro-8-((4-(trifluoromethoxy)benzyl)oxy)imidazo[1,2-a]pyrazine] | < 5
28 | Cc1ccc(Cn2c(C)c(C)n3cc([N+](=O)[O-])nc3c2=O)cc1 [26d, 5,6-Dimethyl-7-(4-methylbenzyl)-2-nitroimidazo[1,2-a]pyrazin-8(7H)-one] | 8.95 ± 1.51 (≈ 2.8 µg/mL)

test system: not listed separately; assay: Mammalian cytotoxicity assay (resazurin), HepG2; conditions: human, HepG2 cells

Row | SMILES | CC50 at 24 h [µM]
29 | Cc1[nH]c(=O)c2nc([N+](=O)[O-])cn2c1C [26a, 5,6-Dimethyl-2-nitroimidazo[1,2-a]pyrazin-8(7H)-one] | > 100
30 | Cc1nc(OCc2ccc(OC(F)(F)F)cc2)c2nc([N+](=O)[O-])cn2c1C [26c, 5,6-Dimethyl-2-nitro-8-((4-(trifluoromethoxy)benzyl)oxy)imidazo[1,2-a]pyrazine] | > 100
31 | Cc1ccc(Cn2c(C)c(C)n3cc([N+](=O)[O-])nc3c2=O)cc1 [26d, 5,6-Dimethyl-7-(4-methylbenzyl)-2-nitroimidazo[1,2-a]pyrazin-8(7H)-one] | > 100

test system: not listed separately; assay: Mammalian cytotoxicity assay (resazurin), HEK293; conditions: human, HEK293 cells

Row | SMILES | CC50 at 24 h [µM]
32 | Cc1[nH]c(=O)c2nc([N+](=O)[O-])cn2c1C [26a, 5,6-Dimethyl-2-nitroimidazo[1,2-a]pyrazin-8(7H)-one] | > 100
33 | Cc1nc(OCc2ccc(OC(F)(F)F)cc2)c2nc([N+](=O)[O-])cn2c1C [26c, 5,6-Dimethyl-2-nitro-8-((4-(trifluoromethoxy)benzyl)oxy)imidazo[1,2-a]pyrazine] | > 100
34 | Cc1ccc(Cn2c(C)c(C)n3cc([N+](=O)[O-])nc3c2=O)cc1 [26d, 5,6-Dimethyl-7-(4-methylbenzyl)-2-nitroimidazo[1,2-a]pyrazin-8(7H)-one] | > 100
